# Test results from PubChem BioAssay (NCI).
#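 The compound was tested at five concentrations on cells cultured in 96-well plates, with a 48-hour exposure period. TGI: concentration producing complete growth inhibition.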
# Tests used:
# Assay in all cases: NCI anticancer screen, dose series, 48 h
# 786-0 renal = system: 786-0 renal
# A549 NSCLC = system: A549 NSCLC
# BT-549 breast = system: BT-549 breast
# CAKI-1 renal = system: CAKI-1 renal
# CCRF-CEM leukemia = system: CCRF-CEM leukemia
# COLO 205 colon = system: COLO 205 colon
# DU-145 prostate = system: DU-145 prostate
# EKVX NSCLC = system: EKVX NSCLC
# HCT-116 colon = system: HCT-116 colon
# HCT-15 colon = system: HCT-15 colon
# HL-60(TB) leukemia = system: HL-60(TB) leukemia
# HOP-62 NSCLC = system: HOP-62 NSCLC
# HOP-92 NSCLC = system: HOP-92 NSCLC
# HS 578T breast = system: HS 578T breast
# HT29 colon = system: HT29 colon
# IGROV1 ovarian = system: IGROV1 ovarian
# K-562 leukemia = system: K-562 leukemia
# KM12 colon = system: KM12 colon
# LOX IMVI melanoma = system: LOX IMVI melanoma
# M14 melanoma = system: M14 melanoma
# MALME-3M melanoma = system: MALME-3M melanoma
# MCF7 breast = system: MCF7 breast
# MDA-MB-231 breast = system: MDA-MB-231 breast
# MDA-MB-435 = system: MDA-MB-435
# MDA-N = system: MDA-N
# MOLT-4 leukemia = system: MOLT-4 leukemia
# NCI-H226 lung = system: NCI-H226 lung
# NCI-H23 lung = system: NCI-H23 lung
# NCI-H522 lung = system: NCI-H522 lung
# NCI/ADR-RES ovarian = system: NCI/ADR-RES ovarian
# OVCAR-3 ovarian = system: OVCAR-3 ovarian
# OVCAR-4 ovarian = system: OVCAR-4 ovarian
# OVCAR-5 ovarian = system: OVCAR-5 ovarian
# OVCAR-8 ovarian = system: OVCAR-8 ovarian
# RPMI-8226 leukemia = system: RPMI-8226 leukemia
# RXF 393 renal = system: RXF 393 renal
# SF-268 CNS = system: SF-268 CNS
# SF-295 CNS = system: SF-295 CNS
# SF-539 CNS = system: SF-539 CNS
# SK-MEL-2 melanoma = system: SK-MEL-2 melanoma
# SK-MEL-28 melanoma = system: SK-MEL-28 melanoma
# SK-MEL-5 melanoma = system: SK-MEL-5 melanoma
# SK-OV-3 ovarian = system: SK-OV-3 ovarian
# SN12C renal = system: SN12C renal
# SNB-19 CNS = system: SNB-19 CNS
# SNB-75 CNS = system: SNB-75 CNS
# SW-620 colon = system: SW-620 colon
# TK-10 renal = system: TK-10 renal
# U251 CNS = system: U251 CNS
# UACC-257 melanoma = system: UACC-257 melanoma
# UACC-62 melanoma = system: UACC-62 melanoma
# UO-31 renal = system: UO-31 renal
# A498 renal = system: A498 renal
# ACHN renal = system: ACHN renal
# HCC-2998 colon = system: HCC-2998 colon
# NCI-H460 lung = system: NCI-H460 lung
# PC-3 prostate = system: PC-3 prostate
# SR leukemia = system: SR leukemia
compound,measurement,setting,value
Cc1ccc(S(=O)(=O)NC(=O)Nc2cc(Cl)c(S(N)(=O)=O)cc2S(N)(=O)=O)cc1,TGI,786-0 renal,> 100 µM
same,TGI,A549 NSCLC,> 100 µM
same,TGI,BT-549 breast,> 100 µM
same,TGI,CAKI-1 renal,> 100 µM
same,TGI,CCRF-CEM leukemia,> 100 µM
same,TGI,COLO 205 colon,> 100 µM
same,TGI,DU-145 prostate,> 100 µM
same,TGI,EKVX NSCLC,> 100 µM
same,TGI,HCT-116 colon,> 100 µM
same,TGI,HCT-15 colon,> 100 µM
same,TGI,HL-60(TB) leukemia,> 100 µM
same,TGI,HOP-62 NSCLC,> 100 µM
same,TGI,HOP-92 NSCLC,> 100 µM
same,TGI,HS 578T breast,> 100 µM
same,TGI,HT29 colon,> 100 µM
same,TGI,IGROV1 ovarian,> 100 µM
same,TGI,K-562 leukemia,> 100 µM
same,TGI,KM12 colon,> 100 µM
same,TGI,LOX IMVI melanoma,> 100 µM
same,TGI,M14 melanoma,> 100 µM
same,TGI,MALME-3M melanoma,> 100 µM
same,TGI,MCF7 breast,> 100 µM
same,TGI,MDA-MB-231 breast,> 100 µM
same,TGI,MDA-MB-435,> 100 µM
same,TGI,MDA-N,> 100 µM
same,TGI,MOLT-4 leukemia,> 100 µM
same,TGI,NCI-H226 lung,> 100 µM
same,TGI,NCI-H23 lung,> 100 µM
same,TGI,NCI-H522 lung,> 100 µM
same,TGI,NCI/ADR-RES ovarian,> 100 µM
same,TGI,OVCAR-3 ovarian,> 100 µM
same,TGI,OVCAR-4 ovarian,> 100 µM
same,TGI,OVCAR-5 ovarian,> 100 µM
same,TGI,OVCAR-8 ovarian,> 100 µM
same,TGI,RPMI-8226 leukemia,> 100 µM
same,TGI,RXF 393 renal,> 100 µM
same,TGI,SF-268 CNS,> 100 µM
same,TGI,SF-295 CNS,> 100 µM
same,TGI,SF-539 CNS,> 100 µM
same,TGI,SK-MEL-2 melanoma,> 100 µM
same,TGI,SK-MEL-28 melanoma,> 100 µM
same,TGI,SK-MEL-5 melanoma,> 100 µM
same,TGI,SK-OV-3 ovarian,> 100 µM
same,TGI,SN12C renal,> 100 µM
same,TGI,SNB-19 CNS,> 100 µM
same,TGI,SNB-75 CNS,> 100 µM
same,TGI,SW-620 colon,> 100 µM
same,TGI,TK-10 renal,> 100 µM
same,TGI,U251 CNS,> 100 µM
same,TGI,UACC-257 melanoma,> 100 µM
same,TGI,UACC-62 melanoma,> 100 µM
same,TGI,UO-31 renal,> 100 µM
CNC(=O)N1N[C@H](c2ccccc2)[C@@H]1c1ccccc1,TGI,786-0 renal,> 100 µM
same,TGI,A498 renal,55.4 µM
same,TGI,A549 NSCLC,> 100 µM
same,TGI,ACHN renal,> 100 µM
same,TGI,BT-549 breast,40.9 µM
same,TGI,CAKI-1 renal,> 100 µM
same,TGI,CCRF-CEM leukemia,> 100 µM
same,TGI,COLO 205 colon,38.8 µM
same,TGI,EKVX NSCLC,85.6 µM
same,TGI,HCC-2998 colon,68.8 µM
same,TGI,HCT-116 colon,36.3 µM
same,TGI,HCT-15 colon,64 µM
same,TGI,HL-60(TB) leukemia,> 100 µM
same,TGI,HOP-62 NSCLC,> 100 µM
same,TGI,HOP-92 NSCLC,91.2 µM
same,TGI,HS 578T breast,> 100 µM
same,TGI,HT29 colon,32.3 µM
same,TGI,IGROV1 ovarian,56.4 µM
same,TGI,K-562 leukemia,54.5 µM
same,TGI,KM12 colon,45.2 µM
same,TGI,LOX IMVI melanoma,44.3 µM
same,TGI,M14 melanoma,56.1 µM
same,TGI,MALME-3M melanoma,72.6 µM
same,TGI,MCF7 breast,62.5 µM
same,TGI,MDA-MB-231 breast,> 100 µM
same,TGI,MDA-N,> 100 µM
same,TGI,MOLT-4 leukemia,71.1 µM
same,TGI,NCI-H226 lung,32.8 µM
same,TGI,NCI-H23 lung,47.9 µM
same,TGI,NCI-H460 lung,53.4 µM
same,TGI,NCI/ADR-RES ovarian,36.6 µM
same,TGI,OVCAR-3 ovarian,36.7 µM
same,TGI,OVCAR-4 ovarian,> 100 µM
same,TGI,OVCAR-5 ovarian,> 100 µM
same,TGI,OVCAR-8 ovarian,29.9 µM
same,TGI,PC-3 prostate,99.1 µM
same,TGI,RXF 393 renal,36.6 µM
same,TGI,SF-295 CNS,41.2 µM
same,TGI,SF-539 CNS,33.3 µM
same,TGI,SK-MEL-2 melanoma,32 µM
same,TGI,SK-MEL-28 melanoma,40.7 µM
same,TGI,SK-MEL-5 melanoma,32.8 µM
same,TGI,SK-OV-3 ovarian,91.2 µM
same,TGI,SN12C renal,62.7 µM
same,TGI,SNB-19 CNS,> 100 µM
same,TGI,SNB-75 CNS,92.2 µM
same,TGI,SR leukemia,58.4 µM
same,TGI,SW-620 colon,77.7 µM
same,TGI,TK-10 renal,> 100 µM
same,TGI,U251 CNS,43 µM
same,TGI,UACC-257 melanoma,> 100 µM
same,TGI,UACC-62 melanoma,26.8 µM
same,TGI,UO-31 renal,74.4 µM
O=C1/C(=C/c2cccs2)NC(=S)N1CN1CCCCC1,TGI,786-0 renal,> 100 µM
same,TGI,A498 renal,> 100 µM
same,TGI,A549 NSCLC,> 100 µM
same,TGI,ACHN renal,> 100 µM
same,TGI,CCRF-CEM leukemia,> 100 µM
same,TGI,COLO 205 colon,47.3 µM
same,TGI,DU-145 prostate,> 100 µM
same,TGI,EKVX NSCLC,> 100 µM
same,TGI,HCT-116 colon,> 100 µM
same,TGI,HCT-15 colon,> 100 µM
same,TGI,HOP-62 NSCLC,> 100 µM
same,TGI,HOP-92 NSCLC,> 100 µM
same,TGI,HS 578T breast,> 100 µM
same,TGI,HT29 colon,> 100 µM
same,TGI,IGROV1 ovarian,> 100 µM
same,TGI,K-562 leukemia,> 100 µM
same,TGI,KM12 colon,> 100 µM
same,TGI,LOX IMVI melanoma,> 100 µM
same,TGI,M14 melanoma,> 100 µM
same,TGI,MALME-3M melanoma,> 100 µM
same,TGI,MCF7 breast,> 100 µM
same,TGI,MDA-MB-231 breast,> 100 µM
same,TGI,MDA-MB-435,> 100 µM
same,TGI,MDA-N,> 100 µM
same,TGI,MOLT-4 leukemia,> 100 µM
same,TGI,NCI-H226 lung,> 100 µM
same,TGI,NCI-H23 lung,> 100 µM
same,TGI,NCI-H522 lung,> 100 µM
same,TGI,NCI/ADR-RES ovarian,> 100 µM
same,TGI,OVCAR-3 ovarian,> 100 µM
same,TGI,OVCAR-4 ovarian,> 100 µM
same,TGI,OVCAR-5 ovarian,> 100 µM
same,TGI,OVCAR-8 ovarian,> 100 µM
same,TGI,PC-3 prostate,> 100 µM
same,TGI,RPMI-8226 leukemia,> 100 µM
same,TGI,SF-268 CNS,> 100 µM
same,TGI,SF-295 CNS,> 100 µM
same,TGI,SK-MEL-2 melanoma,> 100 µM
same,TGI,SK-MEL-28 melanoma,> 100 µM
same,TGI,SK-MEL-5 melanoma,> 100 µM
same,TGI,SK-OV-3 ovarian,> 100 µM
same,TGI,SN12C renal,> 100 µM
same,TGI,SNB-19 CNS,> 100 µM
same,TGI,SNB-75 CNS,> 100 µM
same,TGI,SR leukemia,> 100 µM
same,TGI,SW-620 colon,> 100 µM
same,TGI,TK-10 renal,> 100 µM
same,TGI,U251 CNS,> 100 µM
same,TGI,UACC-62 melanoma,> 100 µM
same,TGI,UO-31 renal,> 100 µM
S=C(N/N=C/c1ccccn1)N1CCCCCC1,TGI,786-0 renal,1.22 µM
same,TGI,A498 renal,0.735 µM
same,TGI,A549 NSCLC,29.1 µM
same,TGI,ACHN renal,1.53 µM
same,TGI,BT-549 breast,22.6 µM
same,TGI,CCRF-CEM leukemia,0.393 µM
same,TGI,DU-145 prostate,> 100 µM
same,TGI,EKVX NSCLC,4.04 µM
same,TGI,HCC-2998 colon,> 38.1 µM
same,TGI,HCT-15 colon,> 33.5 µM
same,TGI,HOP-92 NSCLC,> 100 µM
same,TGI,HS 578T breast,> 100 µM
same,TGI,HT29 colon,> 44.2 µM
same,TGI,K-562 leukemia,> 100 µM
same,TGI,KM12 colon,63.3 µM
same,TGI,LOX IMVI melanoma,64.1 µM
same,TGI,M14 melanoma,0.251 µM
same,TGI,MALME-3M melanoma,42.4 µM
same,TGI,MCF7 breast,25.3 µM
same,TGI,MDA-MB-435,96.8 µM
same,TGI,MDA-N,> 48.9 µM
same,TGI,NCI-H226 lung,1.94 µM
same,TGI,NCI-H23 lung,> 58.6 µM
same,TGI,NCI-H460 lung,0.211 µM
same,TGI,NCI-H522 lung,5.9 µM
same,TGI,NCI/ADR-RES ovarian,0.105 µM
same,TGI,OVCAR-3 ovarian,9.3 µM
same,TGI,OVCAR-4 ovarian,37 µM
same,TGI,OVCAR-5 ovarian,> 54.2 µM
same,TGI,OVCAR-8 ovarian,12.7 µM
same,TGI,PC-3 prostate,> 100 µM
same,TGI,RPMI-8226 leukemia,0.491 µM
same,TGI,RXF 393 renal,5.01 µM
same,TGI,SF-295 CNS,> 100 µM
same,TGI,SF-539 CNS,0.305 µM
same,TGI,SK-MEL-2 melanoma,24.8 µM
same,TGI,SK-MEL-28 melanoma,> 100 µM
same,TGI,SK-MEL-5 melanoma,1.18 µM
same,TGI,SN12C renal,0.359 µM
same,TGI,SNB-19 CNS,> 100 µM
same,TGI,SNB-75 CNS,0.987 µM
same,TGI,SR leukemia,0.93 µM
same,TGI,SW-620 colon,> 100 µM
same,TGI,TK-10 renal,38 µM
same,TGI,UACC-257 melanoma,0.169 µM
same,TGI,UACC-62 melanoma,0.364 µM
same,TGI,UO-31 renal,4.76 µM
